Data: patent US20210128690A1, “METHODS OF ADMINISTERING HEPCIDIN” (La Jolla Pharmaceutical Company, priority 2016, published 2021)

Assay: hepcidin administration to human subjects (patients with sickle cell disease or hereditary hemochromatosis)
Format: in vivo
Details: doses of 1 mg hepcidin and 5 mg hepcidin
Source text: FIG. 1 illustrates the change in serum ferritin levels at baseline and 8 days post hepcidin administration in two patients with sickle cell disease and a high ferritin serum baseline.
Efficacy at this dosing was not expected based on animal studies in mice, rats, and dogs.

Q: With `CC[C@H](C)[C@@H]1NC(=O)[C@@H](NC(=O)[C@@H](NC(=O)[C@@H]2CCCN2C(=O)[C@H](Cc2ccccc2)NC(=O)[C@H](Cc2c[nH]cn2)NC(=O)[C@@H](NC(=O)[C@@H](N)CC(=O)O)[C@@H](C)O)[C@@H](C)CC)CSSC[C@@H](C(=O)N[C@@H](CCCCN)C(=O)N[C@H](C(=O)O)[C@@H](C)O)NC(=O)[C@@H]2CSSC[C@@H]3NC(=O)[C@@H]4CSSC[C@H](NC(=O)[C@H](Cc5ccccc5)NC1=O)C(=O)N[C@@H](CSSC[C@H](NC(=O)[C@H](CCCCN)NC(=O)[C@H](CO)NC(=O)[C@H](CCCNC(=N)N)NC(=O)[C@H](Cc1c[nH]cn1)NC3=O)C(=O)NCC(=O)N[C@@H](CCSC)C(=O)N2)C(=O)NCC(=O)N4` [hepcidin] as the compound, how does the “efficacy in human subjects” value read?
A: display efficacy
